From ChEMBL document CHEMBL5543108, “Structure-based design and synthesis of BML284 derivatives: A novel class of colchicine-site noncovalent tubulin degradation agents” (Eur J Med Chem, 2024)
The source made the active and inactive calls. No cut-off for these calls is given here.

Assays:
K562 = test: Antiproliferative activity against human K562 cells assessed as reduction in cell viability measured after 72 hrs; type: functional, cell-based; conditions: K562, 72 h
A2780/Taxol [1] = test: Induction of cell cycle arrest in human A2780T cells assessed as accumulation of cells at G2/M phase at 300 nM measured after 24 hrs by propidium iodide staining based analysis (reference value: 24.13%); type: functional
A2780/Taxol [2] = test: Induction of cell cycle arrest in human A2780T cells assessed as accumulation of cells at G2/M phase at 10 nM measured after 24 hrs by propidium iodide staining based analysis (reference value: 24.13%); type: functional
A2780/Taxol [3] = test: Induction of cell cycle arrest in human A2780T cells assessed as accumulation of cells at G0/G1 phase at 30 nM measured after 24 hrs by propidium iodide staining based analysis (reference value: 46.141%); type: functional
A2780S [4] = test: Induction of cell cycle arrest in human A2780S cells assessed as accumulation of cells at G0/G1 phase at 30 nM measured after 24 hrs by propidium iodide staining based analysis (reference value: 51.71%); type: functional
Tubulin (Homo sapiens) [5] = target: T1, Tubulin (Homo sapiens) (UniProt P68371+Q9H4B7+P0DPH7+P68366+Q13509+Q71U36+P04350+Q3ZCM7+P07437+P68363+Q9BQE3+Q6PEY2+Q13885+Q9BVA1+Q9BUF5); test: Induction of tubulin degradation in human HeLa cells measured after 24 hrs by immunoblot analysis; type: cell-based; conditions: dose <= 50.0 µM
A2780/Taxol [6] = test: Induction of cell cycle arrest in human A2780T cells assessed as accumulation of cells at S phase at 10 nM measured after 24 hrs by propidium iodide staining based analysis (reference value: 29.73%); type: functional
A2780S [7] = test: Induction of cell cycle arrest in human A2780S cells assessed as accumulation of cells at G2/M phase at 300 nM measured after 24 hrs by propidium iodide staining based analysis (reference value: 18.43%); type: functional
[8] = Selectivity ratio of IC50 for human MCF7ADR cells to IC50 for human MCF7; type: toxicity
A2780S [9] = test: Induction of apoptosis in human A2780S cells assessed as total number of late apoptotic cells at 300 nM measured after 48 hrs by Annexin-V-FITC and PI staining based flow cytometry analysis (reference value: 3.42%); type: functional
[10] = Half life in male Sprague-Dawley rat at 10 mg/kg, iv; type: ADME, organism-based; conditions: in vivo
A2780/Taxol [11] = test: Induction of cell cycle arrest in human A2780T cells assessed as accumulation of cells at G0/G1 phase at 100 nM measured after 24 hrs by propidium iodide staining based analysis (reference value: 46.141%); type: functional
[12] = Volume of distribution at steady state in male Sprague-Dawley rat at 10 mg/kg, po; type: ADME, organism-based; conditions: in vivo
[13] = AUC (0 to t) in male Sprague-Dawley rat at 10 mg/kg, po; type: ADME, organism-based; conditions: in vivo
HUVEC = test: Antivascular activity against human HUVEC cells assessed as inhibition of capillary tube formation incubated for 24 hrs by microscopy based analysis; type: functional, cell-based
[14] = Clearance in male Sprague-Dawley rat at 10 mg/kg, po; type: ADME, organism-based; conditions: in vivo
A2780S [15] = test: Induction of cell cycle arrest in human A2780S cells assessed as accumulation of cells at S phase at 100 nM measured after 24 hrs by propidium iodide staining based analysis (reference value: 29.85%); type: functional
A2780/Taxol [16] = test: Antitumor activity against human A2780T cells xenografted in mouse model assessed as tumor growth inhibition at 10 mg/kg, iv administered every two days for 18 days relative to control; type: functional; conditions: 432 h, time 18 day, read-out: TGI
[17] = Bioavailability in male Sprague-Dawley rat at 10 mg/kg, iv; type: ADME, organism-based; conditions: in vivo
A2780/Taxol [18] = test: Induction of apoptosis in human A2780T cells assessed as total number of late apoptotic cells at 30 nM measured after 48 hrs by Annexin-V-FITC and PI staining based flow cytometry analysis (reference value: 3.42%); type: functional
A2780/Taxol [19] = test: Antitumor activity against human A2780T cells xenografted in mouse model assessed as tumor growth inhibition at 20 mg/kg, iv administered every two days for 18 days relative to control; type: functional; conditions: 432 h, time 18 day, read-out: TGI
A2780/Taxol [20] = test: Antitumor activity against human A2780T cells xenografted in mouse model assessed as tumor growth inhibition at 40 mg/kg, iv administered every two days for 18 days relative to control; type: functional; conditions: 432 h, time 18 day, read-out: TGI
A2780/Taxol [21] = test: Induction of cell cycle arrest in human A2780T cells assessed as accumulation of cells at G0/G1 phase at 300 nM measured after 24 hrs by propidium iodide staining based analysis (reference value: 46.141%); type: functional
A2780S [22] = test: Induction of cell cycle arrest in human A2780S cells assessed as accumulation of cells at G2/M phase at 30 nM measured after 24 hrs by propidium iodide staining based analysis (reference value: 18.43%); type: functional
A2780/Taxol [23] = test: Induction of cell cycle arrest in human A2780T cells assessed as accumulation of cells at S phase at 300 nM measured after 24 hrs by propidium iodide staining based analysis (reference value: 29.73%); type: functional
A2780/Taxol [24] = test: Induction of cell cycle arrest in human A2780T cells assessed as accumulation of cells at G0/G1 phase at 10 nM measured after 24 hrs by propidium iodide staining based analysis (reference value: 46.141%); type: functional
A2780S [25] = test: Induction of cell cycle arrest in human A2780S cells assessed as accumulation of cells at G0/G1 phase at 10 nM measured after 24 hrs by propidium iodide staining based analysis (reference value: 51.71%); type: functional
Tubulin (Homo sapiens) [26] = target: T1, Tubulin (Homo sapiens); test: Induction of tubulin degradation in human HeLa cells at 1 uM measured after 24 hrs by immunoblot analysis; type: cell-based
HeLa = test: Antiproliferative activity against human HeLa cells assessed as reduction in cell viability measured after 72 hrs; type: functional, cell-based
[27] = target: Tubulin beta (Homo sapiens) (UniProt P68371+Q9H4B7+Q13509+P04350+Q3ZCM7+P07437+Q13885+Q9BVA1+Q9BUF5+A6NNZ2); test: Binding affinity to beta-tubulin colchicine binding site in human HeLa cells assessed as inhibition of EBI-beta-tubulin adduct band formation by EBI competition based Western blot analysis; type: cell-based; conditions: dose 0.2-25 µM
A2780S [28] = test: Induction of cell cycle arrest in human A2780S cells assessed as accumulation of cells at S phase at 10 nM measured after 24 hrs by propidium iodide staining based analysis (reference value: 29.85%); type: functional
A2780/Taxol [29] = test: Antiproliferative activity against human A2780T cells assessed as reduction in cell viability measured after 72 hrs; type: functional, cell-based
[30] = Toxicity in mouse xenografted with human A2780T cells assessed as effect on body weight at 10 to 30 mg/kg, iv measured upto 18 days; type: organism-based, A2780/Taxol; conditions: in vivo, 432 h, dose 10-30 mg/kg, time < 18 day
A2780/Taxol [31] = test: Induction of cell cycle arrest in human A2780T cells assessed as accumulation of cells at G2/M phase at 3 nM measured after 24 hrs by propidium iodide staining based analysis (reference value: 24.13%); type: functional
A2780S [32] = test: Induction of apoptosis in human A2780S cells assessed as total number of late apoptotic cells at 100 nM measured after 48 hrs by Annexin-V-FITC and PI staining based flow cytometry analysis (reference value: 3.42%); type: functional

SMILES: COc1cccc(-c2cc(NCc3ccc4[nH]ccc4c3)nc(N)n2)c1
- IC50 (K562): 30 nM
- Activity (A2780/Taxol [1]): 83.98%
- Activity (A2780/Taxol [2]): 20.61%
- Activity (A2780/Taxol [3]): 44.27%
- Activity (A2780S [4]): 48.16%
- Activity (Tubulin (Homo sapiens) [5]): Dose-Dependent Effect
- Activity (A2780/Taxol [6]): 32.91%
- Activity (A2780S [7]): 82.11%
- Ratio IC50 [8]: 1.6
- Activity (A2780S [9]): 15.57%
- half-life [10]: 1.93 h
- Activity (A2780/Taxol [11]): 7.72%
- Vdss [12]: 154.68 L/kg
- AUC(0-t) [13]: 447 ng·h/mL
- IC50 (HUVEC): 623 nM
- CL/F [14]: 314 mL/min/kg
- Activity (A2780S [15]): 37.17%
- inhibition in vivo at 10 mg/kg (A2780/Taxol [16]): 52.2%
- bioavailability [17]: 10.5%
- Activity (A2780/Taxol [18]): 5.29%
- inhibition in vivo at 20 mg/kg (A2780/Taxol [19]): 68.2%
- inhibition in vivo at 40 mg/kg (A2780/Taxol [20]): 82%
- Activity (A2780/Taxol [21]): 4.64%
- Activity (A2780S [22]): 23.82%
- Activity (A2780/Taxol [23]): 11.38%
- Activity (A2780/Taxol [24]): 46.48%
- Activity (A2780S [25]): 48.57%
- Activity (Tubulin (Homo sapiens) [26]): Active
- IC50 (HeLa): 50 nM
- Activity [27]: Dose-Dependent Effect
- Activity (A2780S [28]): 29.27%
- IC50 (A2780/Taxol [29]): 16 nM
- Activity [30]: Non-Toxic
- Activity (A2780/Taxol [31]): 19.35%
- Activity (A2780S [32]): 14.43%
